The text below walks through data of ChEMBL document CHEMBL2440068, “Synthesis and evaluation of N-alkyl-S-[3-(piperidin-1-yl)propyl]isothioureas: high affinity and human/rat species-selective histamine H(3) receptor antagonists” (Bioorg Med Chem Lett, 2013).

The target in one test is Histamine H3 receptor (Homo sapiens, UniProt Q9Y5N1). As to the kind of experiment: Antagonist activity at human histamine H3 receptor expressed in CHO cells assessed as inhibition of forskolin/R-alpha-methylhistamine-induced cAMP accumulation after 1.5 hrs by TR-FRET immunoassay. The format is functional, cell-based. The settings on record: for Kb: read-out: pA2 (converted). Background: Cyclic AMP is a second messenger, typically raised through Gs and lowered through Gi signalling.

Another test deals with Rattus norvegicus. As to the kind of experiment: Increase of histamine release in Wistar rat hypothalamus at 10 uM administered through dialysis membrane by HPLC-fluorometric based microdialysis relative to control. The format is functional.
The target of test [1] is Histamine H4 receptor (Homo sapiens) (UniProt Q9H3N8). Description: Antagonist activity at human histamine H4 receptor expressed in CHO cells assessed inhibition of forskolin/histamine-induced cAMP accumulation at 1 uM after 1.5 hrs by TR-FRET immunoassay. It counts as functional, cell-based.
The target is the same in test [2]. As to the kind of experiment: Agonist activity at human histamine H4 receptor expressed in CHO cells assessed increase of forskolin-induced cAMP accumulation at 1 uM after 1.5 hrs by TR-FRET immunoassay. The format is functional, cell-based.

pIC50: −log10 of the molar value. Activity calls are given as the source filed them. The rule behind the calls is not given here.

Sequence of Histamine H4 receptor (Homo sapiens) (Q9H3N8 whole entry): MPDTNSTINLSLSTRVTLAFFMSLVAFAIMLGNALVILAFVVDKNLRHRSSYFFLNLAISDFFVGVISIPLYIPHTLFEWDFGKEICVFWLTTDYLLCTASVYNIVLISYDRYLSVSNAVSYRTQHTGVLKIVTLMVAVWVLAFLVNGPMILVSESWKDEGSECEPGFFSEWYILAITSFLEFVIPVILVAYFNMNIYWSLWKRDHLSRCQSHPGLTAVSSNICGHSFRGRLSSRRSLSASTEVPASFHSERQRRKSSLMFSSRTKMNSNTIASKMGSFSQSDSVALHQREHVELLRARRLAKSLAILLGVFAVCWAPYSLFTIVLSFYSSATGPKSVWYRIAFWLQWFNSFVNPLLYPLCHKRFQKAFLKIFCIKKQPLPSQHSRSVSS
Sequence of Histamine H3 receptor (Q9Y5N1 whole entry): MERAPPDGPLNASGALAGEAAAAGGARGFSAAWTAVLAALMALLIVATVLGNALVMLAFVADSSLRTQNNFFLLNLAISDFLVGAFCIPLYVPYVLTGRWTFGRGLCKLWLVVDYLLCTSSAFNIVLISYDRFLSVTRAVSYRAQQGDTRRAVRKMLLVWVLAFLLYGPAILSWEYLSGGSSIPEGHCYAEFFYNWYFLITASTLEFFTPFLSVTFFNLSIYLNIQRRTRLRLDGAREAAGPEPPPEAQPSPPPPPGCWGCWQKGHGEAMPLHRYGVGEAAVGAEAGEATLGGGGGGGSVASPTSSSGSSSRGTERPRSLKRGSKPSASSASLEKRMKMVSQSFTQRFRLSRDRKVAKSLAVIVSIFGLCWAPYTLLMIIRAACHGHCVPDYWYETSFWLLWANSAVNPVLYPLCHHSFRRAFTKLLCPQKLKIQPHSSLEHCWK

Usually pIC50 stands for the IC50 on a negative log10 scale, so that one unit is a factor of ten. Take `CN1CCN(CCCSC(=N)NCc2ccc(Cl)cc2)CC1`: the negative-log IC50 (pIC50) at Histamine H3 receptor was 5.90.

In turn, `Cl.N=C(NCCCCc1ccc(Cl)cc1)SCCCN1CCCCC1` yielded an Activity in the test with Rattus norvegicus of 101.2%. For the same compound, the inhibition entry in test [1] was “inactive”. In addition, the result in test [2] was inactive. Besides, on Histamine H3 receptor, the pIC50 is 8.20 and the Kb is 0.000251 µM.

In the test with Rattus norvegicus, `Cl.N=C(NCCCCCc1ccccc1)SCCCN1CCCCC1` returned an Activity of 90.5%. On Histamine H3 receptor, the pIC50 is 7.50 and the Kb was 0.01 µM.

On to `Cl.N=C(NCc1ccc(Cl)cc1)SCCCN1CCCCC1`, for which the Activity in the test with Rattus norvegicus came to 134.4%. Further, at Histamine H3 receptor, the negative logarithm of the IC50 (pIC50) is 7.10 and the Kb was 0.0398 µM.

Take `N=C(NCc1ccc(Cl)cc1)SCCCN1CCCC1`: on Histamine H3 receptor, the negative-log IC50 (pIC50) was 7.70.

`O=C(CCCN1CCCCC1)NCCCCc1ccc(Cl)cc1`: the pIC50 on Histamine H3 receptor was 6.90.

With `N#Cc1ccc(CCCCNC(=N)SCCCN2CCCCC2)cc1`, the inhibition entry in test [1] was “inactive”. Moreover, in test [2], the outcome was inactive. For the same compound, on Histamine H3 receptor, the pIC50 is 8.70 and the Kb was 0.002 µM.

As for `N=C(NCCCCc1ccc(C(F)(F)F)cc1)SCCCN1CCCCC1`, on Histamine H3 receptor, the negative logarithm of the IC50 (pIC50) is 7.80 and the Kb was 0.0126 µM.

As for `N=C(NCCc1ccc(Cl)cc1)SCCCN1CCOCC1`, the pIC50 at Histamine H3 receptor is 6.50.

`Cl.N=C(NCCCc1ccc(Cl)cc1)SCCCN1CCCCC1` displayed an Activity with Rattus norvegicus of 102.2%. The inhibition entry in test [1] is “inactive”. Also, the outcome in test [2] was inactive. At Histamine H3 receptor, the negative-log IC50 (pIC50) is 8.20 and the Kb is 0.002 µM.

As to `O=C(CCCN1CCCCC1)NCCCCc1ccc(C(F)(F)F)cc1`, the pIC50 at Histamine H3 receptor is 6.90.

For the compound `N=C(NCc1ccc(Cl)cc1)SCCCc1c[nH]cn1` [CLOBENPROPIT], the Activity in the test with Rattus norvegicus worked out at 145.6%.

`O=C(CCCCc1ccc(Cl)cc1)NCCCN1CCCCC1`: the pIC50 at Histamine H3 receptor was 6.50.

In the case of `N=C(NCc1ccc(Cl)cc1)SCCCN1CCOCC1`, the pIC50 on Histamine H3 receptor is 5.80.

In the case of `N=C(NCCc1ccc(Cl)cc1)SCCCN1CCCC1`, the pIC50 on Histamine H3 receptor is 7.50.

Regarding `N=C(NCc1ccc(Cl)cc1)SCCCN1CCNCC1`, the pIC50 on Histamine H3 receptor is 5.20.

As to `N=C(NCCCCN1CCCCC1)SCCCN1CCCCC1`, the inhibition result in test [1] was “inactive”. Moreover, the outcome in test [2] was inactive. Besides, on Histamine H3 receptor, the negative logarithm of the IC50 (pIC50) is 8.20 and the Kb is 0.002 µM.

As to `Cl.N=C(NCCc1ccc(Cl)cc1)SCCCN1CCCCC1`, the Activity in the test on Rattus norvegicus is 145.8%. For the same compound, the inhibition entry in test [1] was “inactive”. The result in test [2] was inactive. For the same compound, on Histamine H3 receptor, the pIC50 was 8.10 and the Kb was 0.0398 µM.
